Ends that are not written are not given here.
Assays:
[1] = system: VRE ATCC #51299; type: cell-based, Enterococci
From the text: (§1) As shown in the table below, many drug-resistant pathogens including multidrug-resistant Acinetobacter baumannii (clinical isolates) were susceptible to the bactericidal activity of the newly developed antimicrobial peptides. […] This is shown by their lower MIC and MBC against a number of antibiotic-resistant bacteria including methicillin-resistant Staphylococcus aureus, vancomycin-resistant Enterococci, and multidrug-resistant Acinetobacter baumannii. Many of these resistant strains are involved in nosocomial infections, which affect the immunocompromised and the elderly individuals with weakened defenses. The tests were done in a broth microdilution assay as described in our earlier publication (Concannon et al., 2003).

[2] = system: VRE VVRAMC #7; type: cell-based, Enterococci
From the text: as §1

[3] = system: VRE WRAMC #3; type: cell-based, Enterococci
From the text: as §1

[4] = system: VRE WRAMC #6; type: cell-based, Enterococci
From the text: as §1

[5] = physchem; type: physicochemical; conditions: for half-life at 200 μg/ml: buffer
Method: KSL was analyzed by RP-HPLC using a Prosphere C-18 analytical column (4.6×250 mm, Alltech, Deerfield, Ill.) with a Prosphere C-18 guard column (4.6×7.5 mm, Alltech, Deerfield, Ill.). A gradient elution was performed with mobile phase A (0.1% TFA in water) and mobile phase B (0.1% TFA in acetonitrile). KSL was eluted with a linear gradient from 80:20 to 70:30 (mobile phase A:B) for 8 min at a flow rate of 1.0 ml/min. Total run time was 16 min and the injection volume was 40 μl. Chromatograms were recorded by UV detection at 215 nm.
Test solutions of KSL were prepared using a stock peptide solution of 10 mg/ml in deionized water. The degradation of KSL peptide was investigated in sodium acetate (pH 4), sodium phosphate (pH 7.4) and sodium borate (pH 9) buffers at 0.1 M buffer concentration. Each buffer solution containing 200 μg/ml of KSL was incubated in a temperature-controlled oven at 25, 37 and 55° C., respectively. Samples were taken at pre-determined times and analyzed under HPLC conditions described above. The stability of KSL was studied at 37° C. in artificial saliva over a three day period. Artificial saliva was used in the in vitro release studies in an attempt to simulate actual conditions of use. The ingredients of the artificial saliva were as follows: sodium chloride, 0.844 g; potassium chloride, 1.200 g; calcium chloride dihydrate, 0.193 g; magnesium chloride hexahydrate, 0.111 g; potassium phosphate dibasic, 0.342 g; water to make to 1000 ml. The pH was adjusted with hydrochloric acid solution to pH 5.7±0.1 [26].

[6] = Interaction (adsorption) with hydroxyapatite discs in artificial saliva; type: physicochemical; conditions: KSL 0.5 mg/ml, 8 untreated HA discs, 37° C.
Method: Affinity of KSL to tooth-like materials was assessed by allowing the KSL to interact with HA discs (Size: 0.38″ diameter×0.06-0.08″ thick) in artificial saliva at 37° C. To simulate the tooth surface, the HA discs were pretreated in filtered human saliva for 2 hours (4 HA discs/4 mL of human saliva). Whole human saliva was collected from three healthy male donors in the morning prior to breakfast. After collection, the saliva was immediately centrifuged at 12,000 rpm for 20 min and the supernatant was filter through a 0.45 μm membrane filter. The HA discs, after conditioning with human saliva, were rinsed with artificial saliva and added to 4 ml of KSL solutions (0.5 mg/ml in artificial saliva) at 37° C. As a control, untreated HA discs were directly added to KSL solutions at 37° C. The sample vials were mounted on a rotary wheel with vertical rotation at a speed of 18 cycles/min. Samples were removed at predetermined times, centrifuged and the supernatants were analyzed by RP-HPLC.

[7] = system: biofilms grown on saliva-coated HA surfaces; test: Live/Dead BacLight staining with confocal laser scanning microscopy of treated biofilms; type: cell-based, human salivary bacteria; conditions: 66 h-old biofilms; KSL 200 μg/ml, Bzl 0.001%, CHX 0.12%
Method: (A) Effect of KSL on intact versus disrupted 45 h biofilms formed on saliva-coated HA disks by salivary bacteria using the in vitro plaque assay. A Mann-Whitney test was used for comparison of log reductions in CFU between the experimental groups (KSL-treated intact or disrupted biofilms) with the control groups (dH2O-treated intact or disrupted biofilms). The single asterisk represents a statistically significant difference between KSL and dH2O-treated intact biofilms (p<0.05). Likewise, double asterisks represent a statistically significant difference between KSL and dH2O-treated disrupted biofilms (p<0.01). […] (B) Effect of benzalkonium chloride in promoting the bactericidal activity of KSL against 66 h-old intact oral biofilms formed on saliva-coated HA disks using the in vitro plaque system. A Kruskal-Wallis test was used to compare log reductions in CFU among various treatment groups including the control group (dH2O-treated). The single asterisk represents a statistically significant difference between the combined treatment of KSL and benzalkonium chloride (Bzl) and dH2O (p<0.001), KSL (p<0.01), or Bzl (p<0.01)-treated intact biofilms. Double asterisks represent a statistically significant difference between CHX and dH2O (p<0.001) or Bzl (P<0.05)-treated intact biofilms. […] No significant difference in viability counts was observed between CHX-treated versus the combined use of KSL and Bzl. For (A) and (B), the data represent the determinations of one of three separate experiments, each performed in quadruplicate. Bars represent standard deviations. (C) Confocal images of control and treated biofilms grown on saliva-coated HA surfaces. Live/Dead BacLight™ Viability kit (Molecular Probes, Eugene, Oreg.) was used to assess the viability of biofilm cells exposed to different treatments. […] An excitation wavelength of 488 nm was used and the fluorescence light emitted was collected by two separate emission filters, 500-530 nm (SYTO 9, live), and 650-710 nm (propidium iodide, dead). […]

Substance: KKVVFKVKFK-NH2 [KSL, Lys-Lys-Val-Val-Phe-Lys-Val-Lys-Phe-Lys-NH2]
- MBC [1]: >200 µg/mL
- MIC [1]: >200 µg/mL
- MBC [2]: 100 µg/mL
- MBC [3]: >200 µg/mL
- MIC [3]: >200 µg/mL
- MBC [4]: 100 µg/mL
- half-life at 200 μg/ml ([5]; pH 4): 165 days
- half-life at 200 μg/ml ([5]; pH 7.4): 13.8 days
- half-life at 200 μg/ml ([5]; pH 9): 4.7 days
- Activation energy (Ea) of degradation ([5]; pH 4): 6.7 kcal/mol
- KSL adsorbed to HA discs [6]: approximately 20%
- time to adsorption equilibrium [6]: ≤ 5 min
- viability of biofilm cells by live/dead staining [7]: less impact on the viability of biofilm cells

Source: patent US8778889B2, “Antimicrobial decapeptide oral hygiene treatment” (The United States of America as represented by the …, priority 2003, dated 2014)
